Literature values in patent publication US20100184765A1, “Protein Kinase Inhibitors and Methods for Using Thereof” (IRM LLC, priority 2007, published 2010).

Target: Flt-1 (Homo sapiens, UniProt P17948)
Settings: VEGF binding to Flt-1, literature report

Chain of Flt-1 (P17948 27-1338, species assumed): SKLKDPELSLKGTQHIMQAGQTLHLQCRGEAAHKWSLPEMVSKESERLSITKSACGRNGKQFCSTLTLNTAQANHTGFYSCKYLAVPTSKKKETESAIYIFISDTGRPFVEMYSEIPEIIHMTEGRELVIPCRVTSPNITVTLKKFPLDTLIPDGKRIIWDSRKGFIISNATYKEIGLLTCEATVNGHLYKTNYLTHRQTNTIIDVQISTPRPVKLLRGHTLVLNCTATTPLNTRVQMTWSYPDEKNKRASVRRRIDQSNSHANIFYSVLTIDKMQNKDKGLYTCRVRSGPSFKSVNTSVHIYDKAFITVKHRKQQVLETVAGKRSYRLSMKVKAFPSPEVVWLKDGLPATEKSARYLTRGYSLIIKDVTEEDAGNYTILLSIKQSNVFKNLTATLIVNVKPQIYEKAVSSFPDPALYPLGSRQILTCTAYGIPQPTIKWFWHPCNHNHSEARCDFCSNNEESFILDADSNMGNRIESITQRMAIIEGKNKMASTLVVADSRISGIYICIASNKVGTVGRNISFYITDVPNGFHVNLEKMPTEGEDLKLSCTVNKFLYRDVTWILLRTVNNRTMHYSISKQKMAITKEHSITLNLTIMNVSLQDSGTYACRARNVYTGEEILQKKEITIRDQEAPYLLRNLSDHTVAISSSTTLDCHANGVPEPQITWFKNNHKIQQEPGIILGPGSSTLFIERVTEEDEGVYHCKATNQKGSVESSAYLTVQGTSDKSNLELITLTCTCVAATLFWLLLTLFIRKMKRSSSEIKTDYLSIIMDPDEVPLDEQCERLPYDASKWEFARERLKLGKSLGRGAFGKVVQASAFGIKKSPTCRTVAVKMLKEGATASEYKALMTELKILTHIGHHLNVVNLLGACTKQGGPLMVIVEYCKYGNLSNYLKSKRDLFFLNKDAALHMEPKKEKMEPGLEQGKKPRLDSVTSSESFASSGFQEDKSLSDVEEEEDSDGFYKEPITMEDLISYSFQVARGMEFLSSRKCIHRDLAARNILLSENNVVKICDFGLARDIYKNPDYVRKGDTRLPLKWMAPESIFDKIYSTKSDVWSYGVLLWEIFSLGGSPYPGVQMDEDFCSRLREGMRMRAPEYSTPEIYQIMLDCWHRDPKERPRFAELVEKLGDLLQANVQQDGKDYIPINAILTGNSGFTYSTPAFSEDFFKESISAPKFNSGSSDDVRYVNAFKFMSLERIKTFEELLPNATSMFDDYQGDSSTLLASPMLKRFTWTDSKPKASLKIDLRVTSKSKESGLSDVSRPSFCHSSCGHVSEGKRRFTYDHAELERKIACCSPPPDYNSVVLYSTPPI

**Q.** With VEGF as the substance, how does the Kd read?
**A.** 0.02 nM
